Measured values: patent US20040235939A1, “Synthesis of peloruside a and analogs thereof for use as antitumor agents” (priority 2003, published 2004)
Where two headings read alike, the source gives them in different places.

What was measured:
ptx22 cells = test: Cell Titer-Glo cell viability, Taxol-resistant ptx22 cells; conditions: Homo sapiens, 48 h, read-out: concentration to reduce cell viability to approximately 50%
Procedure: (§1) These cell lines have specific amino acid mutations in tubulin that prevent Taxol®-binding. […] Synthetic (+)-Peloruside A was used for the present example.
(§2) 1A9, ptx10 and ptx22 cells were plated in 96-well plates to approximately 50% confluency. On the next day, Taxol® or Peloruside A was added to each well and incubated for 48 hours. A final concentration of 1, 2, 3, 4, 5, 8, 10, 20, 30, 50, 100, 300, 500, or 1000 nM of Taxol® was used. A final concentration of 10, 20, 30, 40, 50 or 70 nM of Peloruside A was used. Cell viability was measured using the Cell Titer-Glo Luminescent Cell Viability Assay (Promega). FIGS. 80-82 show bar graphs of cell viability at various concentrations of Peloruside A and Taxol®.

LoVo = test: SRB cytotoxicity assay, LoVo; type: cell-based; conditions: Homo sapiens, Colon, read-out: GI50
Procedure: (§3) Cells were treated on Days 1, 3, 5, and 7 with 5 μL of media, vehicle, or drug. Peloruside A was resuspended in 0.1% DMSO and added to wells to a final concentration of 0.01, 0.1, 1, 10 or 100 nM. Taxol® (Sigma-Aldrich) was resuspended in 0.1% ethanol and added to cells to a final concentration of 0.1, 1, 10, 100, or 1000 nM.
(§4) The amount of surviving cells was measured using the sulforhodamine B (SRB) assay as previously described (Skehan et al., New colorimetric cytotoxicity assay for anticancer-drug screening. J. Natl. Cancer Inst., 1990. 82(13): p. 1107-12). Cells were fixed on Days 5, 7, and 9 (representing 4, 6, and 8 days of exposure to drug or control, respectively) with 50% (w/v) trichloroacetic acid for 1 hour at 4° C., rinsed thoroughly with water, and dried overnight. The dried cells were stained with 4% sulforhodamine B in 1% acetic acid, rinsed thoroughly and dried overnight. The bound dye was resuspended in 10 mM Tris and the absorbance was read at 492 nm. Percent growth inhibition (GI) was calculated as follows: %GI=(1−(absorbance sample/absorbance vehicle))×100. The absorbance value for each drug concentration and control represents the average of 6 replicates. The %GI was plotted against the log[drug] to generate the growth curves. The concentration of drug required to inhibit growth by 50% (GI50) was calculated for each time point.

NCI-H23 = test: SRB cytotoxicity assay, NCI-H23; type: cell-based; conditions: Homo sapiens, NCl-H23, Lung, read-out: GI50
Procedure: as §3, §4

NCI-H1395 = test: SRB cytotoxicity assay, NCI-H1395; type: cell-based, human; conditions: NCl-H1395, Lung
Procedure: as §3, §4

NCI-H2887 = test: SRB cytotoxicity assay, NCI-H2887; type: cell-based, human; conditions: NCl-H2887, Lung
Procedure: as §3, §4

MDA-MB-231 = test: SRB cytotoxicity assay, MDA-MB-231; type: cell-based; conditions: Homo sapiens, MB-MDA-231, Breast, read-out: GI50
Procedure: as §3, §4

[1] = system: BSC-1 (Monkey Kidney epithelial) cells; test: Immunofluorescent staining of tubulin in BSC-1 cells; type: cell-based; conditions: 200 nM of Taxol® or 50 nM of Peloruside A
BT-549 = test: SRB cytotoxicity assay, BT-549; type: cell-based; conditions: Homo sapiens, BT-549, Breast, read-out: GI50
Procedure: as §3, §4

SK-MEL-28 = test: SRB cytotoxicity assay, SK-MEL-28; type: cell-based; conditions: Homo sapiens, SK-MEL-28, Melanoma, read-out: GI50
Procedure: as §3, §4

HCT-15 = test: SRB cytotoxicity assay, HCT-15; type: cell-based; conditions: Homo sapiens, HCT-15, Colon, read-out: GI50
Procedure: as §3, §4

SK-OV-3 = test: SRB cytotoxicity assay, SK-OV-3; type: cell-based; conditions: Homo sapiens, SK-OV-3, Ovarian, read-out: GI50
Procedure: as §3, §4

A498 = test: SRB cytotoxicity assay, A498; type: cell-based; conditions: Homo sapiens, A498, Renal, read-out: GI50
Procedure: as §3, §4

ptx10 cells = test: Cell Titer-Glo cell viability, Taxol-resistant ptx10 cells; conditions: Homo sapiens, PTX10, 48 h, read-out: concentration to reduce cell viability to approximately 50%
Procedure: as §1, §2

CAKI-1 = test: SRB cytotoxicity assay, CAKI-1; type: cell-based; conditions: Homo sapiens, CAK1-1, Renal, read-out: GI50
Procedure: as §3, §4

Mia PaCa-2 = test: SRB cytotoxicity assay, Mia PaCa-2; type: cell-based; conditions: Homo sapiens, Mia PaCa-2, Pancreas, read-out: GI50
Procedure: as §3, §4

SK-HEP-1 = test: SRB cytotoxicity assay, SK-HEP-1; type: cell-based; conditions: Homo sapiens, SK-HEP-1, Liver, read-out: GI50
Procedure: as §3, §4

SK-MEL-5 = test: SRB cytotoxicity assay, SK-MEL-5; type: cell-based; conditions: Homo sapiens, SK-MEL-5, Melanoma, read-out: GI50
Procedure: as §3, §4

Hep-G2 = test: SRB cytotoxicity assay, Hep-G2; type: cell-based; conditions: Homo sapiens, Hep G2, Liver, read-out: GI50
Procedure: as §3, §4

PC-3 = test: SRB cytotoxicity assay, PC-3; type: cell-based; conditions: Homo sapiens, PC-3, Prostate, read-out: GI50
Procedure: as §3, §4

HCT-116 = test: SRB cytotoxicity assay, HCT-116; type: cell-based; conditions: Homo sapiens, HCT-116, Colon, read-out: GI50
Procedure: as §3, §4

Capan-1 = test: SRB cytotoxicity assay, Capan-1; type: cell-based; conditions: Homo sapiens, Capan-1, Pancreas, read-out: GI50
Procedure: as §3, §4

CC(=O)O[C@H]1C(=O)[C@@]2(C)[C@H]([C@H](OC(=O)c3ccccc3)[C@]3(O)C[C@H](OC(=O)[C@H](O)[C@@H](NC(=O)c4ccccc4)c4ccccc4)C(C)=C1C3(C)C)[C@]1(OC(C)=O)CO[C@@H]1C[C@@H]2O [Paclitaxel, paclitaxel, reference compound]
IC50 (ptx22 cells): > 100 nM
GI50 (LoVo; 96 h, 4 Days): 1.91 nM
GI50 (LoVo; 144 h, 6 Days): 1.95 nM
GI50 (LoVo; 192 h, 8 Days): 3.92 nM
GI50 (NCI-H23; NCI-H23, 96 h, 4 Days): 1 nM
GI50 (NCI-H23; NCI-H23, 144 h, 6 Days): 1.12 nM
GI50 (NCI-H23; NCI-H23, 192 h, 8 Days): 0.18 nM
GI50 (NCI-H1395; Homo sapiens, NCI-H1395, 144 h, 6 Days, read-out: GI50): 6.81 nM
GI50 (NCI-H1395; Homo sapiens, NCI-H1395, 192 h, 8 Days, read-out: GI50): 5.27 nM
GI50 (NCI-H1395; 4 Days): 4 Days: Resistant
GI50 (NCI-H2887; Homo sapiens, NCI-H2887, 144 h, 6 Days, read-out: GI50): 643 nM
GI50 (NCI-H2887; Homo sapiens, NCI-H2887, 192 h, 8 Days, read-out: GI50): 6.16 nM
GI50 (NCI-H2887; 4 Days): 4 Days: Resistant
GI50 (MDA-MB-231; MDA-MB-231, 144 h, 6 Days): 0.09 nM
GI50 (MDA-MB-231; MDA-MB-231, 192 h, 8 Days): 0.01 nM
formation of a bipolar spindle [1]: the bipolar spindle does not form
GI50 (BT-549; 96 h, 4 Days): 1.76 nM
GI50 (BT-549; 144 h, 6 Days): 1.2 nM
GI50 (BT-549; 192 h, 8 Days): 0.18 nM
GI50 (SK-MEL-28; 96 h, 4 Days): 0.76 nM
GI50 (SK-MEL-28; 144 h, 6 Days): 0.2 nM
GI50 (SK-MEL-28; 192 h, 8 Days): 0.01 nM
GI50 (HCT-15; 96 h, 4 Days): 49.1 nM
GI50 (HCT-15; 144 h, 6 Days): 24 nM
GI50 (HCT-15; 192 h, 8 Days): 26.7 nM
GI50 (SK-OV-3; 144 h, 6 Days): 2.21 nM
GI50 (SK-OV-3; 192 h, 8 Days): 1.07 nM
GI50 (A498; 96 h, 4 Days): 46.1 nM
GI50 (A498; 144 h, 6 Days): 9.75 nM
GI50 (A498; 192 h, 8 Days): 7.57 nM
IC50 (ptx10 cells): > 100 nM
GI50 (CAKI-1; CAKI-1, 96 h, 4 Days): 4.52 nM
GI50 (CAKI-1; CAKI-1, 144 h, 6 Days): 1.21 nM
GI50 (CAKI-1; CAKI-1, 192 h, 8 Days): 1.17 nM
GI50 (Mia PaCa-2; 96 h, 4 Days): 0.73 nM
GI50 (Mia PaCa-2; 144 h, 6 Days): 0.53 nM
GI50 (Mia PaCa-2; 192 h, 8 Days): 0.27 nM
GI50 (SK-HEP-1; SK-HEP1, 96 h, 4 Days): 5.6 nM
GI50 (SK-HEP-1; SK-HEP1, 144 h, 6 Days): 2.85 nM
GI50 (SK-HEP-1; SK-HEP1, 192 h, 8 Days): 0.45 nM
GI50 (SK-MEL-5; 96 h, 4 Days): 0.82 nM
GI50 (SK-MEL-5; 144 h, 6 Days): 1 nM
GI50 (SK-MEL-5; 192 h, 8 Days): 0.27 nM
GI50 (Hep-G2; HepG2, 96 h, 4 Days): 2.82 nM
GI50 (Hep-G2; HepG2, 144 h, 6 Days): 0.47 nM
GI50 (Hep-G2; HepG2, 192 h, 8 Days): 0.63 nM
GI50 (PC-3; 96 h, 4 Days): 0.78 nM
GI50 (PC-3; 144 h, 6 Days): 0.47 nM
GI50 (PC-3; 192 h, 8 Days): 0.27 nM
GI50 (HCT-116; 96 h, 4 Days): 1 nM
GI50 (HCT-116; 144 h, 6 Days): 0.58 nM
GI50 (HCT-116; 192 h, 8 Days): 0.3 nM
GI50 (Capan-1; 96 h, 4 Days): 5.68 nM
GI50 (Capan-1; 144 h, 6 Days): 0.91 nM
GI50 (Capan-1; 192 h, 8 Days): 1.43 nM
